We go through four molecules from paper PMC9963587 (Molecules, 2023).

The subject of data set [1] is VSV pseudotyped lentivirus (VSVpv). The data set is classed as cell-based, vesicular stomatitis virus.
Data set [2] relates to LASVpv (LASV pseudotyped virus bearing LASV GPC, Josiah strain). Put plainly: microbe, parasite or virus in culture. The data set is classed as cell-based, Lassa virus.
For another data set, the target named is LASV GP2 (Lassa virus, UniProt P08669). The experiment in a line: biochemical. The data set is classed as binding. To be noted: for kon: read-out: ka.
Another data set in a line: in vitro. Conditions: human.
[3] abbreviates: Mammarenavirus lassaense, HEK293, 48 h.

What is called IC50 is the concentration at which inhibition is half-maximal. What is called Kd is the constant that tells how readily two partners part at equilibrium. Usually melting point stands for the temperature, or range, at which the solid turns liquid.

“Also recorded” adds a separate entry of the source. Like-named read-outs stand apart in the source and are kept apart here.

Sequence of LASV GP2 (P08669 260-491 limits assumed): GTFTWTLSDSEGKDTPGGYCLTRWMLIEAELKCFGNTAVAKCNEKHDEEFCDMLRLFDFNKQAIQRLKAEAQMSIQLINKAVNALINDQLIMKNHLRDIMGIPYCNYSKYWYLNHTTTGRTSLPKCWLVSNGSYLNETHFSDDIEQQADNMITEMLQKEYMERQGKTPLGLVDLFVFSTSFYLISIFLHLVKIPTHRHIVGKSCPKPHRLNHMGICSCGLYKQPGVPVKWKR

On to `CC(C)Oc1ccc(-n2cnc3cc(/C=C\c4ccc(C(C)(C)O)cc4)ccc32)cc1` [LHF−535, reference compound], for which the “antiviral effect against VSVpv infection” value in data set [1] is recorded as “little or no effect; also recorded: did not exhibit an antiviral effect”. The “inhibition of LASVpv infection (EGFP expression)” value in data set [2] was “concentration-dependent”. For the same molecule, the midpoint of inhibition in data set [2] (setting [3]), the IC50, lay at 3.04 nM. At LASV GP2, the Kd worked out at 114 nM, the kd amounted to 0.03 s⁻¹ and the kon was 304000 M⁻¹ s⁻¹. Moreover, the CC50 in “in vitro” worked out at 3680 nM.
As for “N-(2, 4-dimethoxybenzyl)-1-(4-methoxyphenyl)-1H-benzo[d]imidazol-5-amine [Compound 13c]”, the IC50 in data set [2] (read-out: IC50) came out at 15.5 nM. In the data set on HEK-293 cells, this molecule showed a CC50 of 74200 nM. On LASV GP2, the ka turned out to be 39500 M⁻¹ s⁻¹ and the kd turned out to be 0.03 s⁻¹. The Kd on LASV GP2 (read-out: KD) was determined as 825 nM.
`CC(C)Oc1ccc(-n2cnc3cc(/C=C\c4ccc(OC(F)(F)F)cc4)ccc32)cc1` [Compound 7f−Z, (Z)-1-(4-isopropoxyphenyl)-5-(4-(trifluoromethoxy)styryl)-1H-benzo[d]imidazole] came in with a melting point of 161 to 162 °C. Besides, the concentration for half-maximal inhibition (IC50) in data set [2] (setting [3]) worked out at 33.9 nM. Moreover, on LASV GP2, the Kd is 2190 nM, the kd came out at 0.03 s⁻¹ and the kon is 15600 M⁻¹ s⁻¹. The molecule also registered a CC50 in the data set “in vitro” of 9470 nM.
As for `CC(C)Oc1ccc(-n2cnc3cc(/C=C\c4ccc(OC(F)F)cc4)ccc32)cc1` [Compound 7e−Z, (Z)-5-(4-(difluoromethoxy)styryl)-1-(4-isopropoxyphenyl)-1H-benzo[d]imidazole], the melting point was in the range of 173 to 174 °C. In addition, in data set [2] (setting [3]), inhibition was half-maximal at 34.4 nM (IC50). Also, at LASV GP2, the Kd came to 1980 nM, the kd stood at 0.08 s⁻¹ and the kon was 43400 M⁻¹ s⁻¹. Further, the CC50 in “in vitro” came to 17900 nM.
